Source: publication PMC7614683, “A small molecule PI3Kα activator for cardioprotection and neuroregeneration” (Nature, 2023)

Tested on: PI3Kα-WT MEFs
Assay: Mass spectrometry-based phosphoproteomics, PI3Kα-WT MEFs
Assay type: cell-based, mouse
Conditions: for number of differentially phosphorylated peptides/sites relative to DMSO: 1938 5 μM or insulin 100 nM
Experimental: PI3Kα-WT and PI3Kα-KO MEFs, grown in 15 cm dishes, were serum-starved overnight in DMEM with 1% penicillin-streptomycin and stimulated by the addition of 0.05% DMSO, 5 μM 1938 in final 0.05% DMSO or 100 nM insulin (Sigma #I5016) for 15 min or 4 h. Cells were lysed in 500 μl urea lysis buffer [50 mM triethylammonium bicarbonate, 8 M urea, cOmplete™ EDTA-free protease inhibitor cocktail (1:50 dilution) (Roche #11873580001), 1 PhosSTOP tablet (Roche #4906845001) per 10 ml of lysis buffer, 1 mM sodium orthovanadate] and lysates sonicated until clear for ~10 min with cooling breaks on ice. Protein concentration was measured using a BCA protein assay (Pierce #23227). 300 μg of protein was reduced with 5 mM Tris(2-carboxyethyl)phosphine hydrochloride (Sigma #C4706) at 37°C for 20 min and alkylated using 10 mM 2-chloroacetamide (Sigma #22790) for 20 min at room temperature in the dark. Proteins were digested with LysC (#129-02541; FUJIFILM Wako Chemicals, Osaka, Japan) for 3.5 h at 30°C. Samples were then diluted with 50 mM triethylammonium bicarbonate (Sigma #T7408) to reduce the urea concentration to 1.5 M, followed by an overnight peptide digestion with trypsin (Promega #V5113) at 37°C. Digest reactions were quenched by the addition of 10% trifluoroacetic acid (EMD Millipore #302031-M) to a final pH of 2.0. Sample desalting was performed using 35-350 μg C18 columns (HMM S18V; The Nest Group, Inc., Southborough, MA, USA) according to the manufacturer’ specifications. TiO2 (Hichrome Titansphere TiO2, 10 μm capacity, 100 mg, GL Sciences #5020-75010) was used for phosphoenrichment. Following peptide loading onto TiO2, the beads were sequentially washed with 1 M glycolic acid (Sigma #124737)/80% acetonitrile/5% trifluoroacetic acid, followed by 80% acetonitrile/0.2% trifluoroacetic acid and 20% acetonitrile before elution with 5% ammonium hydroxide. Enriched samples were desalted using 7-70 μg C18 columns (HUM S18V; The Nest Group, Inc., Southborough, MA, USA) according to the manufacturer’s specifications. Dried phosphopeptide samples were stored at -80°C and resuspended in 10% formic acid immediately prior to analysis. nLC-MS/MS was performed on a Q-Exactive Orbitrap Plus interfaced to a NANOSPRAY FLEX ion source and coupled to an Easy-nLC 1000 (Thermo Scientific). Fifty percent of each sample was analysed as 10 μl injections. Peptides were separated on a 27 cm fused silica emitter, 75 μm diameter, packed in-house with Reprosil-Pur 200 C18-AQ, 2.4 μm resin (Dr. Maisch, Ammerbuch-Entringen, Germany) using a linear gradient from 5% to 30% acetonitrile/0.1% formic acid over 180 min, at a flow rate of 250 nl/min. Peptides were ionised by electrospray ionisation using 1.9 kV applied immediately prior to the analytical column via a microtee built into the nanospray source with the ion transfer tube heated to 320°C and the S-lens set to 60%. Precursor ions were measured in a data-dependent mode in the orbitrap analyser at a resolution of 70,000 and a target value of 3e6 ions. The ten most intense ions from each MS1 scan were isolated, fragmented in the HCD cell, and measured in the Orbitrap at a resolution of 17,500.
Raw data were analysed with MaxQuant[72] (version 1.5.5.1) where they were searched against the mouse UniProt database (http://www.uniprot.org/, downloaded 04/12/2018) using default settings. Carbamidomethylation of cysteines was set as fixed modification, and oxidation of methionines, acetylation at protein N-termini, phosphorylation (on S, T or Y) were set as variable modifications. Enzyme specificity was set to trypsin with maximally 2 missed cleavages allowed. To ensure high confidence identifications, peptide-spectral matches, peptides, and proteins were filtered at a less than 1% false discovery rate (FDR). Label-free quantification in MaxQuant was used with a LFQ minimum ratio count of 2, Fast LFQ selected and the ‘skip normalisation’ option selected. […]

| Compound | number of differentially phosphorylated peptides/sites relative to DMSO (15 min) | number of differentially phosphorylated peptides/sites relative to DMSO (4h) | log2FC, PI3Ka WT 4 h 1938 vs PI3Ka WT DMSO (phosphosite Cask_S544) | log2FC, PI3Ka WT 15’ 1938 vs PI3Ka WT DMSO (phosphosite Cask_S545) | log2FC, PI3Ka WT 4 h 1938 vs PI3Ka WT DMSO (phosphosite Cask_S545) | log2FC, PI3Ka WT 15’ 1938 vs PI3Ka WT DMSO (phosphosite Gm42715_S1683) | log2FC, PI3Ka WT 4 h 1938 vs PI3Ka WT DMSO (phosphosite Gm42715_S1683) | log2FC, PI3Ka WT 15’ Insulin vs PI3Ka WT DMSO (phosphosite Cask_S545) | log2FC, PI3Ka WT 4 h Insulin vs PI3Ka WT DMSO (phosphosite Cask_S545) | log2FC, PI3Ka WT 15’ Insulin vs PI3Ka WT DMSO (phosphosite Gm42715_S1683) | log2FC, PI3Ka WT 4 h Insulin vs PI3Ka WT DMSO (phosphosite Gm42715_S1683) |
| --- | --- | --- | --- | --- | --- | --- | --- | --- | --- | --- | --- |
| CCN1CCN(c2ccc(Nc3cc(Nc4cccc5c4N(C(C)=O)CC5)ccn3)cc2)CC1 [Compound 1938] | 27 | 50 | Inf | -0.1674 | -0.01008 | 1.032 | 0.9181 |  |  |  |  |
| insulin: insulin, canonical activator of PI3Kα, used as positive control | 11 | 18 |  |  |  |  |  | -0.06497 | -0.07238 | 0.5546 | 1.083 |
